The subject of series [1] is SARS2-S pseudovirus. The series is described as follows: in vitro. As to conditions: human.
The test system of series [2] is SARS2-S pseudovirus. The series is described as follows: microbe, parasite or virus in culture. To be noted: Huh-7, 48 h; for EC50: read-out: SARS2-S pseudovirus EC50; for EC90: read-out: SARS2-S pseudovirus EC90.
Series [3] relates to SARS-CoV-2 (WIV04). The class given is cell-based.
The subject of series [4] is VSV-G pseudovirus. The series is described as follows: microbe, parasite or virus in culture. As to conditions: Huh-7, read-out: VSV-G pseudovirus EC50. The class given is cell-based.
A short description of series [5]: in vitro. To be noted: human.
Series [6] concerns SARS2-S pseudovirus. To be noted: Huh-7 cells, screening at 20 µM.
For series [7], the system named is SARS-CoV S pseudovirus. The series is described as follows: microbe, parasite or virus in culture. It is filed as cell-based. To be noted: Severe acute respiratory syndrome coronavirus; for EC50: Huh-7, read-out: SARS-CoV S pseudovirus EC50; for EC90: Huh-7, read-out: SARS-CoV S pseudovirus EC90.
Series [8] deals with COVID-19. To be noted: critically ill patients; cited from earlier work.
[9] abbreviates: Huh-7 CC50, Table 2, mean ± SEM from two independent experiments.

Entries after “also recorded” stand apart in the source; their conditions may differ. Where only a bound is given, the exact number is not on record here.

Broadly, the EC50 is the concentration at which the effect is half-maximal. As usually defined, the EC90 is the concentration at which the effect reaches the 90% level.

On to `CN(C)CC/C=C1/c2ccccc2Sc2ccc(Cl)cc21` [Chlorprothixene], for which, in series [1], the selectivity ratio is greater than 11.9. Also, in series [2], the EC50 was 2.15 µM and the concentration for an effect of 90% (EC90) came to 23.8 µM. Also, the “Activity against native SARS-CoV-2 replication (in words)” value in series [3] is on record as “failed to show activity; also recorded: no anti-SARS-CoV-2 activity”. Further, the EC50 in series [4] was greater than 20 µM.

Turning to `OCCN1CCN(CCCN2c3ccccc3Sc3ccc(Cl)cc32)CC1` [Perphenazine], in series [1], the selectivity ratio was found to be 14.7. Further, the EC50 in series [2] was 2.14 µM; in series [4], greater than 20 µM. Moreover, in series [2], the EC90 was greater than 20 µM. In series [3], the “Activity against native SARS-CoV-2 replication (in words)” value is “failed to show activity”.

`CNCCCC1c2ccccc2C=Cc2ccccc21` [Protriptyline]: in series [1], the selectivity ratio is greater than 13.5. In series [5] (Huh7 CC50), this compound had a CC50 greater than 20 µM. In addition, in series [2], the EC50 was 1.68 µM and the EC90 is 7.21 µM. The EC50 in series [4] is greater than 20 µM.

As to `CN(C)CCCN1c2ccccc2Sc2ccc(Cl)cc21` [chlorpromazine], the “Activity in SARS2-S pseudovirus screening (in words)” value in series [6] is “limited toxicity/activity window”.

For `CN1CCCC(n2nc(Cc3ccc(Cl)cc3)c3ccccc3c2=O)CC1` (stereo not drawn) [Azelastine], the selectivity ratio in series [1] is greater than 11.3. Further, the CC50 in series [5] (setting [9]) was greater than 20 µM. Further, the EC50 in series [2] was 1.81 µM; in series [7], 2.36 ± 1.57 µM; in series [4], greater than 20 µM. Also, the EC90 in series [2] is 5.63 µM; in series [7], greater than 20 µM. The “Activity against native SARS-CoV-2 replication (in words)” value in series [3] is “significantly inhibited SARS2 replication”.

As for `CC(CN1c2ccccc2Sc2ccccc21)N(C)C` (stereo not drawn) [Promethazine], the selectivity ratio in series [1] is greater than 20.8. For the same compound, in series [2], the EC50 was found to be 0.96 µM and the EC90 was 18.2 µM. In addition, the “Activity against native SARS-CoV-2 replication (in words)” value in series [3] is given as “failed to show activity”. Moreover, the EC50 in series [4] is greater than 20 µM.

On to `COc1cc(Nc2c(C#N)cnc3cc(OCCCN4CCN(C)CC4)c(OC)cc23)c(Cl)cc1Cl` [Bosutinib], for which, in series [1], the selectivity ratio is 13.6. The compound further returned a CC50 in series [5] (setting [9]) of 13.6 ± 2.16 µM. In addition, the EC50 in series [2] is 1.3 µM; in series [7], 1.04 ± 0.05 µM; in series [4], 5.07 µM. Moreover, the EC90 stood at 1.56 µM in series [2] and 3.15 ± 0.01 µM in series [7]. In series [3], the “Activity against native SARS-CoV-2 replication (in words)” value is given as “significantly inhibited SARS2 replication”.

`Cc1ccc(NC(=O)c2ccc(CN3CCN(C)CC3)cc2)cc1Nc1nccc(-c2cccnc2)n1` [imatinib]: the “Activity in SARS2-S pseudovirus screening (in words)” value in series [6] is given as “weak activity”.

As for `COc1cc2ncnc(Nc3ccc(F)c(Cl)c3)c2cc1OCCCN1CCOCC1` [Gefitinib], the EC90 in series [2] was 20.3 µM.

Turning to `CN(C)[C@@H](CCOc1cccc2ccccc12)c1ccccc1` [Dapoxetine], the selectivity ratio in series [1] was 13.1. Moreover, in series [2], the EC50 was determined as 1.19 µM and the EC90 was found to be 18 µM. The EC50 in series [4] is 18.9 µM.

For the compound `CCCCc1oc2ccccc2c1C(=O)c1cc(I)c(OCCN(CC)CC)c(I)c1` [Amiodarone], the figures for the EC90 in series [2] and in series [7] were 19.4 µM and greater than 20 µM, respectively. In addition, the “Activity against native SARS-CoV-2 replication (in words)” value in series [3] is reported as “significantly inhibited SARS2 replication”.

As to `CN(C)CCOc1ccc(/C(=C(/CCCl)c2ccccc2)c2ccccc2)cc1` [Toremifene], the selectivity ratio in series [1] stood at 8.92. The CC50 in series [5] (setting [9]) is greater than 20 µM. In addition, the 50% effective concentration (EC50) in series [2] turned out to be 1.92 µM; in series [7], 2.28 ± 1.09 µM; in series [4], 17.7 µM. Further, the EC90 in series [2] is 13 µM; in series [7], greater than 20 µM. Also, the “Activity against native SARS-CoV-2 replication (in words)” value in series [3] was “significantly inhibited SARS2 replication”.

For the compound `CCC(CC)COC(=O)[C@H](C)N[P@](=O)(OC[C@H]1O[C@@](C#N)(c2ccc3c(N)ncnn23)[C@H](O)[C@@H]1O)Oc1ccccc1` [remdesivir], the “Improvement of oxygen support” value in series [8] is 68%.

On to `CNCCC=C1c2ccccc2CCc2ccccc21` [Nortriptyline], for which the selectivity ratio in series [1] was 14.5. The compound further returned a CC50 in series [5] (Huh7 CC50) of 16.8 µM. In addition, in series [2], the EC50 worked out at 1.06 µM and the EC90 was found to be 5.26 µM. The “Activity against native SARS-CoV-2 replication (in words)” value in series [3] is reported as “failed to show activity”. Further, the EC50 in series [4] worked out at 17.2 µM.

As for `O=C(O[C@H]1CN2CCC1CC2)N1CCc2ccccc2[C@@H]1c1ccccc1` [Solifenacin], the selectivity ratio in series [1] was greater than 9.66. Besides, the EC50 in series [2] is 2.03 µM; in series [4] it was greater than 20 µM. Besides, the EC90 in series [2] worked out at 8.98 µM.

`CC(CN(C)C)CN1c2ccccc2Sc2ccccc21` (stereo not drawn) [Trimeprazine]: the selectivity ratio in series [1] worked out at 14.2. In addition, the CC50 in series [5] (setting [9]) is 16.7 ± 1.89 µM. Besides, the EC50 in series [2] was found to be 0.97 µM; in series [7], 0.66 ± 0.45 µM; in series [4] it was 5.87 µM. The EC90 came out at 3.77 µM in series [2] and 4.3 ± 0.48 µM in series [7]. Further, in series [3], the “Activity against native SARS-CoV-2 replication (in words)” value was “significantly inhibited SARS2 replication”.

For `OCCN1CCN(CCC=C2c3ccccc3Sc3ccc(C(F)(F)F)cc32)CC1` [Flupenthixol], in series [1], the selectivity ratio was 11.7. This compound also displayed a CC50 in series [5] (setting [9]) of 14.7 ± 3.28 µM. Besides, the EC50 in series [2] amounted to 1.45 µM; in series [7] it was 1.39 ± 0.35 µM; in series [4] it was 17.9 µM. Further, the EC90 in series [2] was 8.68 µM; in series [7] it was 10.8 ± 1.05 µM. For the same compound, the “Activity against native SARS-CoV-2 replication (in words)” value in series [3] is on record as “significantly inhibited SARS2 replication”.

These data come from PMC7594953 (Acta Pharmacologica Sinica, 2020).
